The values below come from article PMC11558128 (Advanced Science, 2024).

Residue numbers refer to the chain shown, from its start. Positions of bridges follow the written chain, without caps; N, C: chain ends. Residues, ends and D or L forms follow the SMILES beside them.

Common to all, as to assay: cell-based
Assay [1] has as its target T1, rKv4.2 N282A (Rattus norvegicus, UniProt Q63881, N282A).
T1 construct: expressed in transfected cells; host or cells: HEK293T
T1 sequence (Q63881 1-630 N282A): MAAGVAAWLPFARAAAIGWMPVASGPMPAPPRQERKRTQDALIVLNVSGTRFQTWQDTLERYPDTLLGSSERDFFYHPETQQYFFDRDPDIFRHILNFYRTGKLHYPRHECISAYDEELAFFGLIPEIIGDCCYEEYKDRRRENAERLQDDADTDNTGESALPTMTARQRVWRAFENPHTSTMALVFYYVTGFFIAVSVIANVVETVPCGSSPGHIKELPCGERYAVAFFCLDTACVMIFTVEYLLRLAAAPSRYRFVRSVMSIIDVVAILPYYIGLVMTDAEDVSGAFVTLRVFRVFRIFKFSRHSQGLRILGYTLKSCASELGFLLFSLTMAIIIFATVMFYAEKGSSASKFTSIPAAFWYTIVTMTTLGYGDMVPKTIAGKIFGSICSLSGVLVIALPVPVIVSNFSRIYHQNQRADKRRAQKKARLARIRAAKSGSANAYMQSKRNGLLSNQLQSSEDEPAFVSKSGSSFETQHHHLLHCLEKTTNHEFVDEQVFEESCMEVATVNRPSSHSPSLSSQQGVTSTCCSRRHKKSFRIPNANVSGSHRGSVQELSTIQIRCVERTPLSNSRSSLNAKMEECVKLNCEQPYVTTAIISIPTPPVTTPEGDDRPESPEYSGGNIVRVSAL
Conditions: mean ± SEM.

In assay [2] the target is T2, rKv4.2 D284K (Rattus norvegicus, UniProt Q63881, D284K).
T2 construct: expressed in transfected cells; host or cells: HEK293T
T2 sequence (Q63881 1-630 D284K): T1 sequence (Q63881 1-630 N282A) with A282N, D284K
Particulars: mean ± SEM; SEM.

The target in assay [3] is T3, rKv4.2 (Rattus norvegicus, UniProt Q63881).
T3 construct: expressed in transfected cells; host or cells: HEK293T
T3 sequence (Q63881 1-630): T1 sequence (Q63881 1-630 N282A) with A282N
Conditions: whole-cell patch clamp, HEK293T; mean ± SEM, n = 3-8; SEM; read-out: IC50 on rKv4.2 WT.

In assay [4] the target is T4, rKv4.3 (Rattus norvegicus, UniProt Q62897).
T4 construct: expressed in transfected cells; host or cells: HEK293T
T4 sequence (Q62897 1-655): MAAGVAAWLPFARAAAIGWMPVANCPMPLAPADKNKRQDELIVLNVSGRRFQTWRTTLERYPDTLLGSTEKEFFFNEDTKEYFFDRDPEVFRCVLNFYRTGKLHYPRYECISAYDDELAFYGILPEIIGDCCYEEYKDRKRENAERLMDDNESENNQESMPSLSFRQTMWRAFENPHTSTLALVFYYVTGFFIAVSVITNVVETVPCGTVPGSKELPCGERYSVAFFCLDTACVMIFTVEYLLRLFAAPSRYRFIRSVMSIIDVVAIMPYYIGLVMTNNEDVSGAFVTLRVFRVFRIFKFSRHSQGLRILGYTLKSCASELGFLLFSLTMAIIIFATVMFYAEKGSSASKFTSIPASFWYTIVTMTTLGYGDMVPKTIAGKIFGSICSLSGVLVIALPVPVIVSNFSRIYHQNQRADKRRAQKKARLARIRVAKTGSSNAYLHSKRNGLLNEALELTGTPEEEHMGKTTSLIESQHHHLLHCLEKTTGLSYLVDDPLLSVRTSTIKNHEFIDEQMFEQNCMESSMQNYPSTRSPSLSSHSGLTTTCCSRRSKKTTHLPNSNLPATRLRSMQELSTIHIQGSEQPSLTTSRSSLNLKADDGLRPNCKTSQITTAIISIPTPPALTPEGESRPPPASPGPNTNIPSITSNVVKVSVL
Conditions: whole-cell patch clamp, HEK293T; held at -80 mV, step to 0 mV; mean ± S.E.M., n = 3-8; SEM. (In general: In patch-clamp work, channel activity is measured electrically.)

Consider `CSCC[C@@H]1NC(=O)CNC(=O)[C@H](CCC(=O)O)NC(=O)[C@@H]2CSSC[C@H](NC(=O)[C@@H](N)Cc3ccc(O)cc3)C(=O)N[C@@H](CCC(N)=O)C(=O)N[C@@H](CCCCN)C(=O)N[C@@H](Cc3c[nH]c4ccccc34)C(=O)N[C@@H](CCSC)C(=O)N[C@@H](Cc3c[nH]c4ccccc34)C(=O)N[C@@H]([C@@H](C)O)C(=O)N[C@H]3CSSC[C@H](NC(=O)[C@H](C(C)C)NC1=O)C(=O)N[C@@H](CCCNC(=N)N)C(=O)N[C@@H](CC(C)C)C(=O)N[C@@H](Cc1c[nH]c4ccccc14)C(=O)N[C@H](C(=O)N[C@@H](CCCCN)C(=O)N[C@@H](CCCCN)C(=O)N[C@@H](CCCCN)C(=O)N[C@@H](CC(C)C)C(=O)N[C@@H](Cc1c[nH]c4ccccc14)C(=O)O)CSSC[C@H](NC(=O)[C@H](CCCCN)NC(=O)[C@H](CCCNC(=N)N)NC(=O)[C@H](CCC(=O)O)NC(=O)[C@H](CO)NC(=O)[C@H](CC(=O)O)NC3=O)C(=O)N2` [ProTx-II], for which the IC50 (commonly the concentration needed to halve the response being measured) came to 7 ± 1 nM in assay [1], 20 ± 2 nM in assay [2], 5 ± 2 nM in assay [3] and 5.1 ± 0.4 nM in assay [4].
Turning to `CC[C@H](C)[C@@H]1NC(=O)[C@@H]2CSSC[C@@H]3NC(=O)[C@H](C(C)C)NC(=O)[C@H](CC(C)C)NC(=O)[C@H](CC(N)=O)NC(=O)[C@@H]4CCCN4C(=O)[C@H](CCCNC(=N)N)NC(=O)[C@H](CSSC[C@H](NC(=O)[C@@H](N)CC(=O)O)C(=O)N[C@@H](CC(C)C)C(=O)NCC(=O)N[C@@H](C)C(=O)N[C@@H](Cc4ccccc4)C(=O)N[C@@H](CCCNC(=N)N)C(=O)N[C@@H](CCCCN)C(=O)N2)NC(=O)[C@H](CSSC[C@@H](C(=O)N[C@@H](CCCCN)C(=O)N[C@@H](Cc2ccc(O)cc2)C(=O)N[C@H](C(=O)N[C@@H](Cc2ccccc2)C(N)=O)C(C)C)NC(=O)[C@H](Cc2c[nH]c4ccccc24)NC(=O)[C@H](CCCNC(=N)N)NC(=O)[C@H](Cc2cnc[nH]2)NC(=O)[C@H](CC(C)C)NC(=O)[C@H](CCCNC(=N)N)NC(=O)[C@H](CO)NC3=O)NC(=O)[C@H](CCCCN)NC(=O)[C@H](CC(=O)O)NC(=O)[C@H](CC(N)=O)NC(=O)[C@H](CC(=O)O)NC(=O)[C@@H]2CCCN2C1=O` [mGpTx1] (H-DCLGAFRKCIPDNDKCCRPNLVCSRLHRWCKYVF-NH2; disulfide 2-17, 9-23, 16-30), the half-inhibitory concentration (IC50) was found to be 17 ± 5 nM in assay [1], 663 ± 179 nM in assay [2], 81 ± 16 nM in assay [3] and 56 ± 4.8 nM in assay [4].
